Measurements from ChEMBL document CHEMBL1201862, “PubChem BioAssay data set” (2004).
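Growth conditions: 96-well plates. Treatment: test compound, 48 hours, 5 concentrations. Analysis: linear interpolation between bracketing concentrations; unreached endpoints set to highest concentration. GI50 is the concentration that inhibits growth by half.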 Active and inactive are the calls of the source. Cut-off read from the data, not from the text of the source: active = GI50 up to about 1.1 µM and inactive = higher.

What was measured:
Assay in all cases: DTP human tumour cell line panel, 48 h
786-0 = tested on: 786-0
CAKI-1 = tested on: CAKI-1
CCRF-CEM = tested on: CCRF-CEM
COLO 205 = tested on: COLO 205
HCC 2998 = tested on: HCC 2998
IGROV-1 = tested on: IGROV-1
KM12 = tested on: KM12
LOX IMVI = tested on: LOX IMVI
M14 = tested on: M14
MDA-N = tested on: MDA-N
MOLT-4 = tested on: MOLT-4
NCI-H226 = tested on: NCI-H226
NCI-H460 = tested on: NCI-H460
NCI/ADR-RES = tested on: NCI/ADR-RES
OVCAR-5 = tested on: OVCAR-5
SF-539 = tested on: SF-539
SK-OV-3 = tested on: SK-OV-3
SNB-75 = tested on: SNB-75
NCI-H23 = tested on: NCI-H23

Measured: GI50

Cc1cc(S(=O)(=O)Nc2nc(N)n(-c3ccccc3)n2)c(S)cc1Cl
inactive: 786-0 > 100 µM | CAKI-1 > 100 µM | CCRF-CEM > 100 µM | COLO 205 > 100 µM | HCC 2998 > 100 µM | IGROV-1 > 100 µM | KM12 > 100 µM | LOX IMVI > 100 µM | M14 > 100 µM | MDA-N > 100 µM | MOLT-4 > 100 µM | NCI-H226 > 100 µM | NCI-H460 > 100 µM | NCI/ADR-RES > 100 µM | OVCAR-5 > 100 µM | SF-539 86.3 µM | SK-OV-3 > 100 µM | SNB-75 > 100 µM

COc1ccc(-n2c(N)c(C#N)c(C#N)c2-c2ccco2)cc1
inactive: 786-0 > 100 µM | CAKI-1 > 100 µM | CCRF-CEM > 100 µM | COLO 205 > 100 µM | HCC 2998 > 100 µM | IGROV-1 75.2 µM | KM12 > 100 µM | LOX IMVI > 100 µM | M14 > 100 µM | MDA-N 45.5 µM | MOLT-4 46.7 µM | NCI-H226 > 100 µM | NCI-H23 > 100 µM | NCI/ADR-RES > 100 µM | OVCAR-5 > 100 µM | SF-539 > 100 µM | SK-OV-3 > 100 µM | SNB-75 11.9 µM

CCCCC1C(=O)N(c2ccc(S(=O)(=O)Nc3ccccn3)cc2)N(c2ccc(O)c(C(=O)O)c2)C1=O (stereo not drawn)
inactive: 786-0 > 100 µM | CAKI-1 > 100 µM | CCRF-CEM > 100 µM | COLO 205 > 100 µM | HCC 2998 > 100 µM | IGROV-1 > 100 µM | KM12 > 100 µM | LOX IMVI > 100 µM | M14 > 100 µM | MDA-N > 100 µM | MOLT-4 > 100 µM | NCI-H226 > 100 µM | NCI-H23 > 100 µM | NCI-H460 > 100 µM | NCI/ADR-RES > 100 µM | OVCAR-5 > 100 µM | SF-539 > 100 µM | SK-OV-3 > 100 µM | SNB-75 > 100 µM

Cc1c(C(=O)O)n2c(C)nnc2c2ccccc12
inactive: 786-0 > 100 µM | CAKI-1 > 100 µM | CCRF-CEM > 100 µM | COLO 205 > 100 µM | HCC 2998 > 100 µM | IGROV-1 > 100 µM | KM12 > 100 µM | LOX IMVI > 100 µM | M14 > 100 µM | MDA-N > 100 µM | MOLT-4 > 100 µM | NCI-H226 > 100 µM | NCI-H23 > 100 µM | NCI-H460 > 100 µM | NCI/ADR-RES > 100 µM | OVCAR-5 > 100 µM | SF-539 > 100 µM | SK-OV-3 > 100 µM | SNB-75 36 µM

CCC(C#N)N(Cc1ccc(CN(C(=O)c2ccccc2)C(C#N)CC)cc1)C(=O)c1ccccc1 (stereo not drawn)
inactive: 786-0 19.2 µM | CAKI-1 24.3 µM | CCRF-CEM 17.8 µM | COLO 205 14.7 µM | HCC 2998 14.6 µM | IGROV-1 18.4 µM | KM12 21.7 µM | LOX IMVI 15.9 µM | M14 36.6 µM | MDA-N 32.4 µM | MOLT-4 15.8 µM | NCI-H226 32.5 µM | NCI-H23 25.7 µM | NCI/ADR-RES 18.2 µM | OVCAR-5 37.8 µM | SF-539 18.6 µM | SK-OV-3 23.9 µM | SNB-75 22.3 µM

Cc1nc(C)c(Cc2ccccc2)o1
inactive: 786-0 > 100 µM | CAKI-1 > 100 µM | CCRF-CEM > 100 µM | COLO 205 > 100 µM | HCC 2998 > 100 µM | IGROV-1 > 100 µM | KM12 > 100 µM | LOX IMVI > 100 µM | M14 > 100 µM | MDA-N > 100 µM | MOLT-4 > 100 µM | NCI-H226 > 100 µM | NCI-H23 > 100 µM | NCI-H460 > 100 µM | NCI/ADR-RES > 100 µM | OVCAR-5 > 100 µM | SF-539 > 100 µM | SK-OV-3 > 100 µM | SNB-75 41.4 µM

O=c1[nH]c(=O)c2c([nH]1)[nH]c1ccc(Br)cc12
inactive: 786-0 66.2 µM | CAKI-1 > 100 µM | CCRF-CEM 82.2 µM | COLO 205 > 100 µM | HCC 2998 28 µM | IGROV-1 77.6 µM | KM12 21.8 µM | LOX IMVI > 100 µM | M14 > 100 µM | MDA-N > 100 µM | NCI-H226 > 100 µM | NCI-H23 > 100 µM | NCI/ADR-RES > 100 µM | OVCAR-5 > 100 µM | SF-539 > 100 µM | SK-OV-3 13.6 µM | SNB-75 74.5 µM

Clc1cccc(-c2nc3cccc4c3n2Cc2ncccc2-4)c1
inactive: 786-0 17.6 µM | CAKI-1 8.02 µM | CCRF-CEM > 100 µM | COLO 205 > 100 µM | HCC 2998 > 100 µM | IGROV-1 54.3 µM | KM12 > 100 µM | M14 > 100 µM | MDA-N > 100 µM | NCI-H226 11.8 µM | NCI-H23 > 100 µM | NCI-H460 6.67 µM | NCI/ADR-RES > 100 µM | OVCAR-5 > 100 µM | SF-539 41.8 µM | SK-OV-3 96.8 µM | SNB-75 9.04 µM

Cn1c(-c2ccccc2)cc(-c2ccc3c(c2)OCO3)c1-c1ccsc1
inactive: 786-0 > 100 µM | CAKI-1 > 100 µM | CCRF-CEM > 100 µM | COLO 205 > 100 µM | HCC 2998 > 100 µM | KM12 > 100 µM | LOX IMVI > 100 µM | M14 > 100 µM | MDA-N > 100 µM | MOLT-4 > 100 µM | NCI-H226 > 100 µM | NCI-H23 52.8 µM | NCI-H460 > 100 µM | NCI/ADR-RES > 100 µM | OVCAR-5 > 100 µM | SF-539 > 100 µM | SK-OV-3 > 100 µM | SNB-75 > 100 µM

Nc1nc(O)c([I+]c2ccccc2)c(=O)[nH]1
inactive: 786-0 > 100 µM | CAKI-1 > 100 µM | CCRF-CEM > 100 µM | COLO 205 > 100 µM | HCC 2998 > 100 µM | IGROV-1 > 100 µM | KM12 > 100 µM | LOX IMVI > 100 µM | MDA-N > 100 µM | MOLT-4 > 100 µM | NCI-H226 > 100 µM | NCI-H23 > 100 µM | NCI-H460 > 100 µM | NCI/ADR-RES > 100 µM | OVCAR-5 > 100 µM | SF-539 > 100 µM | SNB-75 > 100 µM

CC(C)=CCC/C(C)=C/Cc1cc(/C=C/c2cc(O)c(CC=C(C)C)c(O)c2)cc(O)c1O [MAPPAIN]
inactive: 786-0 4.6 µM | CAKI-1 5.42 µM | COLO 205 17.3 µM | HCC 2998 2.13 µM | IGROV-1 1.76 µM | KM12 4.29 µM | LOX IMVI 2.31 µM | M14 4.26 µM | MDA-N 2.41 µM | MOLT-4 1.93 µM | NCI-H226 8.59 µM | NCI-H23 3.31 µM | NCI-H460 2.68 µM | NCI/ADR-RES 3.15 µM | OVCAR-5 4.36 µM | SF-539 3.79 µM | SK-OV-3 8.87 µM | SNB-75 2.58 µM
